Experimental data taken from ChEMBL document CHEMBL3885861, “Open TG-GATES”.

Species on record: Rattus norvegicus
Experiment: Open TG-GATES - Regimen: Daily Repeat
Assay type: toxicity, organism-based, Sprague-Dawley
Set-up: regimen Daily Repeat, gender Male, age 6 weeks
Conditions: in vivo, po, 15 mg/kg, route gavage, dose level High; for APTT / Bas / Eos / Fbg / Hb / Ht / Lym / MCH / MCHC / MCV / Mono / Neu / PT / Plat / RBC / Ret / WBC: tissue Blood; for KIDNEY_L / KIDNEY_R / KIDNEY_TOTAL: tissue Kidney; for LIVER: tissue Liver; for ALP / ALT / AST / BUN / CRE / Ca / Cl / DBIL / GLC / IP / K / LDH / Na / PL / RALB / TBIL / TC / TG / TP / gamma-GTP: tissue Plasma

O=P1(N(CCCl)CCCl)NCCCO1 (stereo not drawn) [CYCLOPHOSPHAMIDE ANHYDROUS]
TERMINAL_BW (72 h, time 3 day): 216.4 g
APTT (72 h, time 3 day): 19.7 s
Bas (72 h, time 3 day): 0%
Eos (72 h, time 3 day): 1%
Fbg (72 h, time 3 day): 279.6 mg/dL
Hb (72 h, time 3 day): 12.9 g/dL
Ht (72 h, time 3 day): 38.7%
Lym (72 h, time 3 day): 73.8%
MCH (72 h, time 3 day): 21.8 pg
MCHC (72 h, time 3 day): 33.3%
MCV (72 h, time 3 day): 65.5 fL
Mono (72 h, time 3 day): 1.4%
Neu (72 h, time 3 day): 23.8%
PT (72 h, time 3 day): 16.8 s
Plat (72 h, time 3 day): 121.4 x10_4/uL
RBC (72 h, time 3 day): 590.2 x10_4/ul
Ret (72 h, time 3 day): 1.6%
WBC (72 h, time 3 day): 25.1 x10_2/uL
KIDNEY_L (72 h, time 3 day): 1 g
KIDNEY_R (72 h, time 3 day): 1 g
KIDNEY_TOTAL (72 h, time 3 day): 1.9 g
LIVER (72 h, time 3 day): 10.1 g
ALP (72 h, time 3 day): 1493.4 IU/L
ALT (72 h, time 3 day): 36.8 IU/L
AST (72 h, time 3 day): 65.2 IU/L
BUN (72 h, time 3 day): 16.4 mg/dL
CRE (72 h, time 3 day): 0.2 mg/dL
Ca (72 h, time 3 day): 10.6 mg/dL
Cl (72 h, time 3 day): 106.4 meq/L
DBIL (72 h, time 3 day): 0 mg/dL
GLC (72 h, time 3 day): 187.6 mg/dL
IP (72 h, time 3 day): 7.8 mg/dL
K (72 h, time 3 day): 3.9 meq/L
LDH (72 h, time 3 day): 169.2 IU/L
Na (72 h, time 3 day): 142.6 meq/L
PL (72 h, time 3 day): 148.2 mg/dL
RALB (72 h, time 3 day): 2.9 g/dL
TBIL (72 h, time 3 day): 0.008 mg/dL
TC (72 h, time 3 day): 78.8 mg/dL
TG (72 h, time 3 day): 95 mg/dL
TP (72 h, time 3 day): 5.5 g/dL
gamma-GTP (72 h, time 3 day): 1 IU/L
TERMINAL_BW ([…], time 7 day): 231.7 g
TERMINAL_BW ([…], time 14 day): 252.5 g
TERMINAL_BW ([…], time 28 day): 239.3 g
APTT ([…], time 7 day): 22.1 s
Bas ([…], time 7 day): 0%
Eos ([…], time 7 day): 1%
Fbg ([…], time 7 day): 277.2 mg/dL
Hb ([…], time 7 day): 13.1 g/dL
Ht ([…], time 7 day): 38.8%
Lym ([…], time 7 day): 77%
MCH ([…], time 7 day): 21 pg
MCHC ([…], time 7 day): 33.6%
MCV ([…], time 7 day): 62.5 fL
Mono ([…], time 7 day): 1.2%
Neu ([…], time 7 day): 20.4%
PT ([…], time 7 day): 15.2 s
Plat ([…], time 7 day): 81.8 x10_4/uL
RBC ([…], time 7 day): 622 x10_4/ul
Ret ([…], time 7 day): 2.8%
WBC ([…], time 7 day): 12.8 x10_2/uL
APTT ([…], time 14 day): 21 s
Bas ([…], time 14 day): 0%
Eos ([…], time 14 day): 0.8%
Fbg ([…], time 14 day): 278.4 mg/dL
Hb ([…], time 14 day): 12.8 g/dL
Ht ([…], time 14 day): 37.3%
Lym ([…], time 14 day): 63%
MCH ([…], time 14 day): 21.1 pg
MCHC ([…], time 14 day): 34.2%
MCV ([…], time 14 day): 61.8 fL
Mono ([…], time 14 day): 3%
Neu ([…], time 14 day): 32.2%
PT ([…], time 14 day): 14.1 s
Plat ([…], time 14 day): 107 x10_4/uL
RBC ([…], time 14 day): 604.8 x10_4/ul
Ret ([…], time 14 day): 2.3%
WBC ([…], time 14 day): 4.7 x10_2/uL
APTT ([…], time 28 day): 20.4 s
Bas ([…], time 28 day): 0%
Eos ([…], time 28 day): 2%
Fbg ([…], time 28 day): 277.6 mg/dL
Hb ([…], time 28 day): 9.3 g/dL
Ht ([…], time 28 day): 27.9%
Lym ([…], time 28 day): 20.8%
MCH ([…], time 28 day): 20.7 pg
MCHC ([…], time 28 day): 33.5%
MCV ([…], time 28 day): 62 fL
Mono ([…], time 28 day): 3.8%
Neu ([…], time 28 day): 69.2%
PT ([…], time 28 day): 17.7 s
Plat ([…], time 28 day): 79.2 x10_4/uL
RBC ([…], time 28 day): 448 x10_4/ul
Ret ([…], time 28 day): 8.3%
WBC ([…], time 28 day): 17.2 x10_2/uL
KIDNEY_L ([…], time 7 day): 0.9 g
KIDNEY_R ([…], time 7 day): 1 g
KIDNEY_TOTAL ([…], time 7 day): 1.9 g
KIDNEY_L ([…], time 14 day): 1 g
KIDNEY_R ([…], time 14 day): 1 g
KIDNEY_TOTAL ([…], time 14 day): 2.1 g
KIDNEY_L ([…], time 28 day): 1.1 g
KIDNEY_R ([…], time 28 day): 1.1 g
KIDNEY_TOTAL ([…], time 28 day): 2.1 g
LIVER ([…], time 7 day): 10.9 g
LIVER ([…], time 14 day): 11.4 g
LIVER ([…], time 28 day): 9.6 g
ALP ([…], time 7 day): 1013 IU/L
ALT ([…], time 7 day): 32.2 IU/L
AST ([…], time 7 day): 59 IU/L
BUN ([…], time 7 day): 16.6 mg/dL
CRE ([…], time 7 day): 0.2 mg/dL
Ca ([…], time 7 day): 10.8 mg/dL
Cl ([…], time 7 day): 106.8 meq/L
DBIL ([…], time 7 day): 0 mg/dL
GLC ([…], time 7 day): 178.8 mg/dL
IP ([…], time 7 day): 6.5 mg/dL
K ([…], time 7 day): 4.1 meq/L
LDH ([…], time 7 day): 200 IU/L
Na ([…], time 7 day): 143 meq/L
PL ([…], time 7 day): 144.8 mg/dL
RALB ([…], time 7 day): 2.8 g/dL
TBIL ([…], time 7 day): 0.018 mg/dL
TC ([…], time 7 day): 71.2 mg/dL
TG ([…], time 7 day): 139.6 mg/dL
TP ([…], time 7 day): 5.4 g/dL
gamma-GTP ([…], time 7 day): 1 IU/L
ALP ([…], time 14 day): 573.6 IU/L
ALT ([…], time 14 day): 19.8 IU/L
AST ([…], time 14 day): 40.8 IU/L
BUN ([…], time 14 day): 18.6 mg/dL
CRE ([…], time 14 day): 0.2 mg/dL
Ca ([…], time 14 day): 10.4 mg/dL
Cl ([…], time 14 day): 109.8 meq/L
DBIL ([…], time 14 day): 0.002 mg/dL
GLC ([…], time 14 day): 175.6 mg/dL
IP ([…], time 14 day): 6.2 mg/dL
K ([…], time 14 day): 4.2 meq/L
LDH ([…], time 14 day): 136 IU/L
Na ([…], time 14 day): 143.4 meq/L
PL ([…], time 14 day): 146 mg/dL
RALB ([…], time 14 day): 2.8 g/dL
TBIL ([…], time 14 day): 0.016 mg/dL
TC ([…], time 14 day): 73.6 mg/dL
TG ([…], time 14 day): 142.4 mg/dL
TP ([…], time 14 day): 5.4 g/dL
gamma-GTP ([…], time 14 day): 1.2 IU/L
ALP ([…], time 28 day): 471.2 IU/L
ALT ([…], time 28 day): 35.8 IU/L
AST ([…], time 28 day): 104.8 IU/L
BUN ([…], time 28 day): 30 mg/dL
CRE ([…], time 28 day): 0.2 mg/dL
Ca ([…], time 28 day): 9.7 mg/dL
Cl ([…], time 28 day): 114.2 meq/L
DBIL ([…], time 28 day): 0.05 mg/dL
GLC ([…], time 28 day): 165.6 mg/dL
IP ([…], time 28 day): 7.3 mg/dL
K ([…], time 28 day): 3.9 meq/L
LDH ([…], time 28 day): 516.4 IU/L
Na ([…], time 28 day): 145.8 meq/L
PL ([…], time 28 day): 122 mg/dL
RALB ([…], time 28 day): 2.6 g/dL
TBIL ([…], time 28 day): 0.1 mg/dL
TC ([…], time 28 day): 69.6 mg/dL
TG ([…], time 28 day): 74.4 mg/dL
TP ([…], time 28 day): 5.1 g/dL
gamma-GTP ([…], time 28 day): 1.6 IU/L
